Measurements from ChEMBL document CHEMBL4138122, “Azaphenothiazines - promising phenothiazine derivatives. An insight into nomenclature, synthesis, structure elucidation and biological properties” (Eur J Med Chem, 2017).
Values after ≈ are worked out from the molar mass of the structure shown.

Tests used:
[1] = Inhibition of LTB4 formation in rat polymorphonuclear leukocytes preincubated for 2 mins followed by A-23187 addition after 4 mins; format: functional, cell-based
[2] = Displacement of [3H]-diazepam from benzodiazepine receptor in rat brain membranes after 30 mins; format: cell membranes, Membrane
[3] = Inhibition of soybean 15-lipoxygenase; parameters: species or system Glycine max
[4] = biological target: Cholinesterase (Equus caballus) (UniProt P81908); assay: Inhibition of horse serum BChE at 10 uM
Cholinesterase (Equus caballus), sequence (P81908 whole entry): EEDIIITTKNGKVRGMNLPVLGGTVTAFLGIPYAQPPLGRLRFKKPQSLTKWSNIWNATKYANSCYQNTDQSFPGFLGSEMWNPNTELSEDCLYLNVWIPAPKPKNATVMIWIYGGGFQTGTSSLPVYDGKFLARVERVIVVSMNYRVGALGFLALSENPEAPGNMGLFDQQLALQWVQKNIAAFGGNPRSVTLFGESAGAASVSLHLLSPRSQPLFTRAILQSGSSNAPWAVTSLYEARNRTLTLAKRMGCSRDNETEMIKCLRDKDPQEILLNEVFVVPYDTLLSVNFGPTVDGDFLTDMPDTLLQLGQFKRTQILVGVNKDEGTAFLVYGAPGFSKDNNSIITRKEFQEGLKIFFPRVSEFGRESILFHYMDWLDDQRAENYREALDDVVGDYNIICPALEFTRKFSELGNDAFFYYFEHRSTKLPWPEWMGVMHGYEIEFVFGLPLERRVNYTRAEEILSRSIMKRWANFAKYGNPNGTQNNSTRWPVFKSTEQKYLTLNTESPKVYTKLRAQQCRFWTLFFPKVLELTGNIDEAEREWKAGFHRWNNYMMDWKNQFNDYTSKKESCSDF

Cholinesterase = Cholinesterase (Equus caballus, UniProt P81908); assay: Inhibition of horse serum BChE
Cholinesterase, sequence (P81908 whole entry): as above

Mus musculus [5] = assay: Neuropharmacological activity in iv dosed Charles River Swiss mouse assessed as minimum dose at which reactive signs were observed in half of mouse tested; format: functional
Bacillus cereus = assay: Antibacterial activity against Bacillus cereus; format: functional, organism-based
Escherichia coli = assay: Antibacterial activity against Escherichia coli; format: functional; conditions: for MIC: Escherichia coli
[6] = biological target: Intercellular adhesion molecule 1 (Homo sapiens, UniProt P05362); assay: Inhibition of ICAM1 (unknown origin)
Intercellular adhesion molecule 1, sequence (P05362 whole entry): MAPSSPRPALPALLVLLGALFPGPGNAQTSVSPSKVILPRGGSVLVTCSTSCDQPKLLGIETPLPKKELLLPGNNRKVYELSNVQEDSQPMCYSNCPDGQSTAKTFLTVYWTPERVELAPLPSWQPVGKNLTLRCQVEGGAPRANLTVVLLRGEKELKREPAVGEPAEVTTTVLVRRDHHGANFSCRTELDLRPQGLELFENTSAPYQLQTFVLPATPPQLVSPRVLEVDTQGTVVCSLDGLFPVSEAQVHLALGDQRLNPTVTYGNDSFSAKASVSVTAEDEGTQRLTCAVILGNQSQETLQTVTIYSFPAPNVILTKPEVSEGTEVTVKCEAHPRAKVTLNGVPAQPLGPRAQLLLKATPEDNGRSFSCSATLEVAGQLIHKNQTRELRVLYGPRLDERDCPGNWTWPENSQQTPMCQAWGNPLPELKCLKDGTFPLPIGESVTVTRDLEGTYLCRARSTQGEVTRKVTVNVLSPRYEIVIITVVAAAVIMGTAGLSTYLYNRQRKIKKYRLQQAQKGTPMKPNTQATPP

Mus musculus [7] = assay: Anti-inflammatory activity in mouse IL-1-induced paw inflammation model assessed as inhibition of neutrophil infiltration at 10 mg/kg, po; format: functional; conditions: Mus musculus, po
Lipoxygenase = Lipoxygenase (Glycine max, UniProt Q39829); assay: Inhibition of soybean lipoxygenase using linoleic acid as substrate preincubated for 5 mins followed by substrate addition measuredf after 7 mins by solution A/B solution based assay
Enterococcus faecalis = assay: Antibacterial activity against Enterococcus faecalis; format: functional
Staphylococcus aureus = assay: Antibacterial activity against Staphylococcus aureus; format: functional
Bacillus subtilis = assay: Antibacterial activity against Bacillus subtilis; format: functional
MCF7 = assay: Cytotoxicity against human MCF7 cells incubated for 72 hrs by WST1 dye based assay; format: functional, cell-based; conditions: MCF7, 72 h
PBMC [8] = assay: Inhibition of PHA-induced cell proliferation of human PBMC at 50 ug/ml incubated for 4 days by MTT method; format: functional; conditions: 96 h
PBMC [9] = assay: Cytotoxicity in human PBMCs assessed as reduction in cel viability at 50 ug/ml; format: cell-based
Mus musculus [10] = assay: Anti-inflammatory activity in IL1-induced paw inflammation Balb/c mouse model assessed as inhibition of neutrophil migration at 10 mg/kg, po, pretreated for 30 mins followed by IL1 challenge measured after 2 hrs by spectrophotometric method; format: functional
PBMC [11] = assay: Inhibition of LPS-induced TNFalpha profduction in human PBMC at 5 ug/ml; format: functional
Candida albicans = assay: microbe, parasite or virus in culture
Description: Antimicrobial activity against Candida albicans

Rattus norvegicus = assay: Analgesic activity in Sprague-Dawley rat assessed as reduction in phenylbenzoquinone-induced number of writhes at 20 mg/kg, sc incubated for 60 mins; format: functional; parameters: scale not given: the % may be the effect or the level left
Mus musculus [12] = assay: Analgesic activity in mouse assessed as reduction in phenylquinone-induced number of writhes at 20 mg/kg, ip; format: functional; parameters: scale not given: the % may be the effect or the level left

For `COc1ccc2c(c1Cl)Sc1nccnc1N2C`, the IC50 [1] was 1 to 5 µg/mL (≈ 3.57 to 17.9 µM).

For `N#Cc1c2c(c[nH]c1=O)Sc1ccc(N)cc1N2`, the IC50 [2] was 310 to 910 nM.

Compound `c1ccc2c(c1)Nc1nnc(N3CCCC3)cc1S2` has an IC50 [3] of over 287000 nM.

Work on `CN1CCCCC1CCN1c2nc3ccccc3cc2Sc2cc3ccccc3nc21` (configuration not stated) yielded an inhibition [4] of 99.8% and an IC50 (Cholinesterase) of 11.8 nM.

In the case of `CC(C)N(CCSC(=O)N1c2cc(F)ccc2Sc2cccnc21)C(C)C`, the MED50 (Mus musculus [5]) is reported as 0.058 to 1.8 mg/kg.

With `COc1ccc2c(n1)Sc1c3c(c4ccccc4c1=N2)=Nc1cc([N+](=O)[O-])ccc1O3` the MIC (Bacillus cereus) was 87.4 µg/mL (≈ 204 µM) and the MIC (Escherichia coli) was 87.1 to 97.1 µg/mL (≈ 203 to 227 µM).

Work on `O=C(O)C1CC2(CCN(Cc3ccc4c(c3)Nc3nccnc3S4)CC2)C1` yielded an IC50 [6] of 420 to 1000 nM and an inhibition in vivo at 10 mg/kg (Mus musculus [7]) of 82.8%.

Work on `CN1CCN(c2ncc3c(n2)Sc2ccccc2N3)CC1` yielded an IC50 (Lipoxygenase) of 87700 nM.

In the case of `C[n+]1cc2c(c3ccccc31)Nc1ccc(Br)cc1S2.[Cl-]`, the MIC (Enterococcus faecalis) is reported as 9 µg/mL and the MIC (Staphylococcus aureus; Staphylococcus aureus, read-out: MIC) is reported as 26 µg/mL.

For `CC(C)N(CCSC(=O)N1c2ccccc2Sc2cc(Cl)cnc21)C(C)C`, the MED50 (Mus musculus [5]) was 0.058 to 1.8 mg/kg.

For `O=[N+]([O-])c1cnc2c(c1)Sc1cccc(Br)c1N2`, the “inhibition zone (IZ)” value (Staphylococcus aureus) was 8 - 15 mm, the “inhibition zone (IZ)” value (Bacillus subtilis) was 8 - 12 mm and the “inhibition zone (IZ)” value (Escherichia coli) was 7 - 12 mm.

With `C#CCN1c2cccnc2Sc2cccnc21` the IC50 (MCF7) was 3.9 µg/mL (≈ 16.3 µM).

In the case of `O=C(NCCCl)NCCCN1c2nc3ccccc3cc2Sc2cc3ccccc3nc21`, the inhibition [4] is reported as 83.2% and the IC50 (Cholinesterase) is reported as 2900 nM.

With `c1cnc2c(c1)Sc1ccncc1N2CCN1CCOCC1` the inhibition at 50 µg/mL (PBMC [8]) was 60% and the Activity (PBMC [9]) was “<= 22%”.

In the case of `N#Cc1c(O)ncc2c1Nc1ccc(Cl)cc1S2`, the IC50 [2] is reported as 310 to 910 nM.

In the case of `CS(=O)(=O)N1CCN(Cc2ccc3c(c2)Nc2nccnc2S3)CC1`, the IC50 [6] is reported as 270 to 1400 nM and the inhibition in vivo at 10 mg/kg (Mus musculus [10]) is reported as 53.4%.

`CS(=O)(=O)NCCC1CCN(Cc2ccc3c(c2)Nc2nccnc2S3)CC1` showed an IC50 [6] of 270 to 1400 nM and an inhibition in vivo at 10 mg/kg (Mus musculus [10]) of 83.4 to 89.7%.

With `C=CCN1c2cnccc2Sc2cccnc21` the inhibition at 5 µg/mL (PBMC [11]) was over 85% and the Activity (PBMC [9]) was “<= 22%”.

`C[n+]1cc2c(c3ccccc31)Nc1ccccc1S2.[Cl-]` showed an MIC (Enterococcus faecalis) of 6 µg/mL and an MIC (Escherichia coli) of 7 µg/mL.

For `CC(C)N(CCSC(=O)N1c2cc(C(F)(F)F)ccc2Sc2cccnc21)C(C)C`, the MED50 (Mus musculus [5]) was 0.058 to 1.8 mg/kg.

Compound `O=[N+]([O-])c1ccc2c(c1)N=c1c(c3c(c4ccccc14)=Nc1ccccc1S3)O2` has an MIC (Candida albicans) of 100 µg/mL (≈ 252 µM) and an MIC (Bacillus subtilis; Bacillus subtilis) of 45.7 µg/mL (≈ 115 µM).

Work on `c1ccc2c(c1)Nc1nnc(N3CCCCC3)cc1S2` yielded an IC50 [3] of over 287000 nM.

Work on `CCN1CCN(c2nc(C)c3c(n2)Sc2ccccc2N3)CC1` yielded an IC50 (Lipoxygenase) of 40700 nM.

Work on `CN1CCN(c2cc3c(nn2)Nc2ccccc2S3)CC1` yielded an IC50 [3] of over 287000 nM.

In the case of `CCN(CC)CCN1c2cnccc2Sc2cccnc21`, the inhibition at 50 µg/mL (PBMC [8]) is reported as 60% and the Activity (PBMC [9]) is reported as “<= 22%”.

In the case of `CN(C)CCCN1c2ccccc2Sc2cnccc21.O=C(O)C(=O)O`, the Activity (Rattus norvegicus) is reported as 59 - 86%.

Work on `N#Cc1c2c(c[nH]c1=O)Sc1ccc([N+](=O)[O-])cc1N2` yielded an IC50 [2] of 310 to 910 nM.

Compound `COc1ccc2c(c1)Sc1nccnc1N2` has an IC50 [1] of 0.05 to 1 µg/mL (≈ 0.216 to 4.32 µM).

With `CSc1nnc2c3c(cnn12)Sc1ccccc1N3` the Activity (Mus musculus [12]) was 54 - 65%.

In the case of `Cc1nc(N2CCN(C)CC2)nc2c1Nc1ccccc1S2`, the IC50 (Lipoxygenase) is reported as 21200 nM.

Work on `N#Cc1c(O)ncc2c1Nc1cc(Cl)ccc1S2` yielded an IC50 [2] of 310 to 910 nM.

With `c1cnc2c(c1)Sc1ccncc1N2` the inhibition at 50 µg/mL (PBMC [8]) was over 70% and the Activity (PBMC [9]) was “<= 22%”.

With `CN1CCC2=C(C1)Sc1ccccc1N2CCCN1CCOCC1` the Activity (Rattus norvegicus) was 93%.

With `CSc1ccc2c(c1)N(C(=O)SCCN(C(C)C)C(C)C)c1ncccc1S2` the MED50 (Mus musculus [5]) was 0.058 to 1.8 mg/kg.

Work on `Cc1ccc2c(c1)Sc1c[n+](C)c3ccccc3c1N2.[Cl-]` yielded an MIC (Enterococcus faecalis) of 11 µg/mL.

Work on `N#Cc1c2c(c[nH]c1=O)S(=O)(=O)c1c(Cl)cccc1N2` yielded an IC50 [2] of 310 to 910 nM.

In the case of `O=[N+]([O-])c1cnc2c(c1)Sc1cccc(Cl)c1N2`, the “inhibition zone (IZ)” value (Staphylococcus aureus) is reported as 8 - 15 mm, the “inhibition zone (IZ)” value (Bacillus subtilis) is reported as 12 mm and the “inhibition zone (IZ)” value (Escherichia coli) is reported as 7 - 12 mm.

For `c1ccc(CN2c3cnccc3Sc3cccnc32)cc1`, the inhibition at 5 µg/mL (PBMC [11]) was over 85% and the Activity (PBMC [9]) was “<= 22%”.

For `CCN(CC)CCSc1nnc2c3c(cnn12)Sc1ccccc1N3`, the Activity (Mus musculus [12]) was 54 - 65%.
